We go through nine molecules from patent publication US20100113513A1, “QUINOLINE DERIVATIVES AS FUNGICIDES” (SYNGENTA CROP PROTECTION, INC., priority 2007, published 2010).

The test system of this test is Erysiphe graminis f.sp. tritici. Briefly: Erysiphe graminis f.sp. tritici (wheat powdery mildew) wheat leaf segment test, preventive. Format: in vivo. The conditions noted are these: Blumeria graminis, foliar, 96 h, wheat leaf segments, assessed four days after inoculation, read-out: control of fungal infection, Erysiphe graminis f.sp. tritici.
On to `COC(Oc1ccc2ncc(Br)cc2c1)C(=O)NC(C)(C)C` (stereo not drawn) [12 (155), 2-(3-bromo-quinolin-6-yloxy)-N-tert-butyl-2-methoxy-acetamide], for which the pest or weed control at 200 ppm is not below 60%.
The value for `CCC(Oc1ccc2ncc(Br)cc2c1)C(=O)NC(C)(C)C` (stereo not drawn) [12 (154), 2-(3-bromo-quinolin-6-yloxy)-N-tert-butyl-butyramide] was not below 60%; that for `CCC(Oc1cc(C)c2ncc(Br)cc2c1)C(=O)NC(C)(C)COC` (stereo not drawn) [47 (90), 2-(3-Bromo-8-methyl-quinolin-6-yloxy)-N-(2-methoxy-1,1-dimethyl-ethyl)-butyramide] was not below 60%; that for `CCOC(Oc1ccc2ncc(Br)cc2c1)C(=O)NC(C)(C)C` (stereo not drawn) [12 (156), 2-(3-Bromo-quinolin-6-yloxy)-N-tert-butyl-2-ethoxy-acetamide] was not below 60%.
`CCOC(Oc1ccc2ncc(Br)cc2c1)C(=O)NC(C)(C)COC` (stereo not drawn) [47 (156), 2-(3-Bromo-quinolin-6-yloxy)-2-ethoxy-N-(2-methoxy-1,1-dimethyl-ethyl)-acetamide]: the pest or weed control at 200 ppm is not below 60%.
Then `COC(Oc1cc(Br)c2ncc(Br)cc2c1)C(=O)NC(C)(C)C` (stereo not drawn) [12 (99), N-tert-Butyl-2-(3,8-dibromo-quinolin-6-yloxy)-2-methoxy-acetamide], with not below 60%; and `CCC(Oc1ccc2ncc(Br)cc2c1)C(=O)NC(C)(C#N)COC` (stereo not drawn) [52 (154), 2-(3-Bromo-quinolin-6-yloxy)-N-(1-cyano-2-methoxy-1-methyl-ethyl)-butyramide], with not below 60%; and `COCC(C)(C#N)NC(=O)C(OC)Oc1ccc2ncc(Br)cc2c1` (stereo not drawn) [52 (155), 2-(3-Bromo-quinolin-6-yloxy)-N-(1-cyano-2-methoxy-1-methyl-ethyl)-2-methoxy-acetamide], with not below 60%.
The value for `COCC(C)(C)NC(=O)C(OC)Oc1ccc2ncc(Br)cc2c1` (stereo not drawn) [47 (155), 2-(3-Bromo-quinolin-6-yloxy)-2-methoxy-N-(2-methoxy-1,1-dimethyl-ethyl)-acetamide] was not below 60%.
